Test results published in patent US20240299504A1, “COMPOSITIONS AND METHODS FOR TREATING ALZHEIMERS DISEASE” (priority 2023, published 2024).

Tested on: 5×FAD mice
Assay: Y-maze test
Assay type: in vivo, mouse
Protocol: Parathyroid hormone (human) was purchased from TOCRIS Bioscience (Cat #3011/1, Abingdon, United Kingdom). WT or 5×FAD mice (both male and female) were treated with PTH1-34 intermittently [once daily injection of hPTH1-34 (50 μg/Kg) or vehicle (0.9% sodium chloride) (as a control) by subcutaneous injection, starting at 2-MO, 5 days per week] as described previously. Mice were then subjected to behavioral tests and sacrificed for examinations of their bone and brain phenotypes at the indicated ages.
Mice (female and male) at the age of ˜5-MO were subjected to behavioral studies. The experimental procedures are described as previously. […] The total arm entries and the number of tri-ads were recorded to quantify the percentage of spontaneous alternation. For novel object recognition (NOR), which tests mouse's memory ability for a novel object, 20 min were recorded to analyze the time to explore the old object vs. the new object of each mouse. […] During test trials, one of the objects was replaced with a new object and mice were free to explore for another 20 min, and the time spent exploring the new object and the old object was recorded. The discrimination index is quantified as the novelty object preference, which is the time spent exploring the new object minus the time exploring the old object over the total exploration time.

CC[C@H](C)[C@H](NC(=O)[C@H](CCC(=O)O)NC(=O)[C@H](CO)NC(=O)[C@@H](NC(=O)[C@@H](N)CO)C(C)C)C(=O)N[C@@H](CCC(N)=O)C(=O)N[C@@H](CC(C)C)C(=O)N[C@@H](CCSC)C(=O)N[C@@H](Cc1cnc[nH]1)C(=O)N[C@@H](CC(N)=O)C(=O)N[C@@H](CC(C)C)C(=O)NCC(=O)N[C@@H](CCCCN)C(=O)N[C@@H](Cc1cnc[nH]1)C(=O)N[C@@H](CC(C)C)C(=O)N[C@@H](CC(N)=O)C(=O)N[C@@H](CO)C(=O)N[C@@H](CCSC)C(=O)N[C@@H](CCC(=O)O)C(=O)N[C@@H](CCCN=C(N)N)C(=O)N[C@H](C(=O)N[C@@H](CCC(=O)O)C(=O)N[C@@H](Cc1c[nH]c2ccccc12)C(=O)N[C@@H](CC(C)C)C(=O)N[C@@H](CCCN=C(N)N)C(=O)N[C@@H](CCCCN)C(=O)N[C@@H](CCCCN)C(=O)N[C@@H](CC(C)C)C(=O)N[C@@H](CCC(N)=O)C(=O)N[C@@H](CC(=O)O)C(=O)N[C@H](C(=O)N[C@@H](Cc1cnc[nH]1)C(=O)N[C@@H](CC(N)=O)C(=O)N[C@@H](Cc1ccccc1)C(=O)O)C(C)C)C(C)C [PTH1-34]
Y maze spontaneous alternation (5×FAD female mice ~5-MO vs Veh-treated 5×FAD female): an increase in spontaneous alternation | Y maze spontaneous alternation (5×FAD male mice ~5-MO vs Veh): positive effect on the spontaneous alternation
